Test results from patent publication US7754718B2 (priority 2004, dated 2010).

Assays:
[1] = tested on: HSV-1; assay: In vitro antiviral assay for HSV-1; type: cell-based, Herpes Simplex Virus 1; conditions: for EC50: Human alphaherpesvirus 1, read-out: Antiviral Activities (EC50, μM) HSV-1
Method: (§1) The antiviral assays for HBV, (Doong et al., 1991, Proc. Natl. Acad. Sci. U.S.A. 88:8495-8499) HSV-1, (Bastow et al., 1983, Antimicrob. Agents Chemother. 23: 914-917) HSV-2, (Bastow et al., 1983, Antimicrob. Agents Chemother. 23:914-917) EBV, (Yao et al., 1993, Antimicrob. Agents Chemother. 37:1420-1425), CMV (Andreoni et al., 2002, J. Med. Virol. 67:33-40) and HIV (Mellors et al., 1992, Mol. Pharmacol. 41: 446-451) were performed according to the previously reported procedures. Anti-HCV activities were tested in Huh-Luc/neo cell line. Cells were seeded into 48-well plates and grown until confluent. Different concentrations of drugs were added into media (DMEM, 10% dFBS) and incubated for 3 days. At the end of 3-day treatment, medium were removed and 50 μl of Passive lysis buffer (Promega) were added. Cell lysate was shaken at room temperature for 15 min. 30 μl/well of cell lysate was transferred to another 96-well plate, 100 μl/well of luciferase activity assay substrate was added into plate and read by a luminometer (Amersham) immediately.

[2] = tested on: HBV; assay: In vitro antiviral assay for HBV (Table 1); type: cell-based, Hepatitis B virus; conditions: Hepatitis B virus, read-out: Antiviral Activities (EC50, μM) HBV
Method: as §1

[3] = tested on: CMV; assay: In vitro antiviral assay for CMV; type: cell-based, cytomegalovirus; conditions: Human betaherpesvirus 5, read-out: Antiviral Activities (EC50, μM) CMV
Method: as §1

[4] = Cell cytotoxicity assay on CEM cells; type: cell-based; conditions: human, read-out: Cytotoxity (ID50, μM) CEM
Method: (§2) Cytotoxicities of test compounds on MT-2 (Mellors et al., 1992 Mol. Pharmacol. 41:446-451) and CEM (Grove et al., 1995, Cancer Res. 55:3008-3011) cells were determined according to the previously reported procedures. Hepg2 cells were seeded at a density of 10^4 cells/ml/well in 24-well plates and cultured in MEME supplemented with 10% FBS at 37° C. and 5% CO2. Each test compound at different concentrations was added on the second day of the culture and the cells were incubated for another 3 days. At the end of the incubation period, the medium was removed and 0.5 ml of 0.5% methylene blue in 50% ethanol (v/v) was added to each well and set at room temperature for 30-60 minutes. The methylene blue was removed; the plates were washed with water and allowed to air dry. Once dry, 1% sarcosyl was added to dissolve the stained cell layer. The absorbance at 595 nm was measured with a microplate reader (Molecular Devices Corp. Sunnyvale, Calif.). The cytotoxicity to CEM cell was calculated as described previously (Grove et al., 1995, Cancer Res. 55 (14): 3008-3011).

[5] = tested on: EBV; assay: In vitro antiviral assay for EBV; type: cell-based, Epstein-Barr Virus; conditions: human gammaherpesvirus 4, read-out: Antiviral Activities (EC50, μM) EBV
Method: as §1

[6] = tested on: HIV; assay: In vitro antiviral assay for HIV; type: cell-based, human immunodeficiency virus; conditions: Human immunodeficiency virus 1, read-out: Antiviral Activities (EC50, μM) HIV, in vitro; (T) after a value means toxic
Method: as §1

[7] = tested on: HSV-2; assay: In vitro antiviral assay for HSV-2; type: cell-based, Herpes Simplex Virus 2; conditions: for EC50: Human alphaherpesvirus 2, read-out: Antiviral Activities (EC50, μM) HSV-2
Method: as §1

[8] = tested on: HCV; assay: Anti-HCV activity in Huh-Luc/neo cell line, luciferase activity after 3-day treatment; type: cell-based, Hepatitis C virus; conditions: Hepatitis C virus, 72 h, Huh-Luc/neo cells, 3 days; for EC50: given as a bound only, read-out: Antiviral Activities (EC50, μM) HCV
Method: as §1

[9] = Cell cytotoxicity assay on MT-2 cells; type: cell-based; conditions: human, read-out: Cytotoxity (ID50, μM) MT-2
Method: as §2

[10] = read-out: HCV percent of inhibition

Row | Compound | EC50 [1] [µM] | EC50 [2] [µM] | EC50 [3] [µM] | IC50 [4] [µM] | EC50 [5] [µM] | EC50 [6] [µM] | EC50 [7] [µM] | EC50 [8] [µM] | IC50 [9] [µM] | inhibition at 10 µM [8, 10] [%] | melting point | times more potent than the reference drug acylclovir against HSV-1 ([1]; ratio of EC50 values) | times more potent than the reference drug acylclovir against HSV-2 ([7]; ratio of EC50 values) [times] | inhibition at 3 µM ([8]; at 3 μM, read-out: HCV percent of inhibition) [%]
1 | O=C1OC(=O)c2c1cc1ccc3c(c1c2-c1ccc2c(c1)OCO2)OCO3 [Compound 1, 10-Benzo[1,3]dioxol-5-yl-furo[3′,4′:6,7]naphtho[1,2-d][1,3]dioxole-7,9-dione] | > 50 | > 10 | 17.6 | > 50 | > 20 | > 100 | > 50 | > 10 | > 100 | – | – | – | – | –
2 | O=C([O-])c1cc2ccc3c(c2c(-c2ccc4c(c2)OCO4)c1CO)OCO3.[Na+] [Compound 3, 9-Benzo[1,3]dioxol-5-yl-8-hydroxymethyl-naphtho[1,2-d][1,3]dioxole-7-carboxylic acid monosodium salt] | 9 | 3.4 | 2.5 | 30 | > 20 | > 10 | 25 | – | 10 | 25 | 128 to 130 °C | – | – | –
3 | O=C(NCCCOCc1ccccc1)c1cc2ccc3c(c2c(-c2ccc4c(c2)OCO4)c1COCc1ccccc1)OCO3 [Compound 8, 9-Benzo[1,3]dioxol-5-yl-8-benzyloxymethyl-naphtho[1,2-d][1,3]dioxole-7-carboxylic acid (3-benzyloxy-propyl)-amide] | > 25 | > 10 | 3.7 | 10 | > 15 | > 100 | > 25 | > 10 | > 100 | – | – | – | – | –
4 | NC(=O)c1cc2ccc3c(c2c(-c2ccc4c(c2)OCO4)c1C(=O)O)OCO3 [Compound 12, 9-Benzo[1,3]dioxol-5-yl-7-carbamoyl-naphtho[1,2-d][1,3]dioxole-8-carboxylic acid] | 0.15 | 0.8 | 0.45 | 8.4 | 9 | > 5 | < 0.1 | – | 5 | – | – | about 140 times | ~210 | 58
5 | O=C1c2cc3ccc4c(c3c(-c3ccc5c(c3)OCO5)c2C(=O)N1O)OCO4 [Compound 24, 10-Benzo[1,3]dioxol-5-yl-8-hydroxy-1,3-dioxa-8-aza-dicyclopenta[a,g]naphthalene-7,9-dione] | > 30 | > 5 | 4.1 | 17 | > 5 | > 16 | > 30 | > 10 | 16 | – | 255 °C (dec.) | – | – | –
6 | O=C1c2cc3ccc4c(c3c(-c3ccc5c(c3)OCO5)c2C(=O)N1CCCO)OCO4 [Compound 29, 10-Benzo[1,3]dioxol-5-yl-8-(3-hydroxy-propyl)-1,3-dioxa-8-aza-dicyclopenta[a,g]naphthalene-7,9-dione] | > 30 | > 5 | 8.1 | 27 | > 5 | > 22 | > 30 | > 10 | 22 | – | 150 to 152 °C | – | – | –
7 | O=C1OCc2c1c(-c1ccc3c(c1)OCO3)c1c3c(ccc1c2O)OCO3 [Compound 34, 10-Benzo[1,3]dioxol-5-yl-6-hydroxy-7H-furo[3′,4′:6,7]naphtho[1,2-d][1,3]dioxol-9-one] | 23 | > 10 | – | 31 | > 10 | > 13 | 28 | > 10 | 13 | – | 257 °C (dec.) | – | – | –
8 | O=C1OCc2c1cc1c(Cl)cc3c(c1c2-c1ccc2c(c1)OCO2)OCO3 [Compound 37, 10-Benzo[1,3]dioxol-5-yl-5-chloro-9H-furo[3′,4′:6,7]naphtho[1,2-d][1,3]dioxol-7-one] | 23 | > 10 | 8.8 | 27 | > 20 | > 50 | > 25 | > 10 | 50 | – | 267 °C (dec.) | – | – | –
9 | O=C1OCc2c1cc1c(Br)cc3c(c1c2-c1ccc2c(c1)OCO2)OCO3 [Compound 38, 10-Benzo[1,3]dioxol-5-yl-5-bromo-9H-furo[3′,4′:6,7]naphtho[1,2-d][1,3]dioxol-7-one] | > 50 | > 60 | – | 100 | > 15 | > 100 | > 50 | > 10 | > 100 | – | 256 °C (dec.) | – | – | –
10 | O=C1OCc2c1cc1c(I)cc3c(c1c2-c1ccc2c(c1)OCO2)OCO3 [Compound 39, 10-Benzo[1,3]dioxol-5-yl-5-iodo-9H-furo[3′,4′:6,7]naphtho[1,2-d][1,3]dioxol-7-one] | > 25 | > 40 | – | 70 | > 10 | > 80 | > 25 | > 10 | 80 | – | 255 °C (dec.) | – | – | –
11 | O=C1NCc2c1cc1c(Br)cc3c(c1c2-c1ccc2c(c1)OCO2)OCO3 [Compound 40, 10-Benzo[1,3]dioxol-5-yl-5-bromo-8,9-dihydro-1,3-dioxa-8-aza-dicyclopenta[a,g]naphthalen-7-one] | 6.5 | > 20 | – | 38 | > 20 | > 54 | > 20 | – | 54 | 32 | 285 °C (dec.) | – | – | –
12 | O=c1[nH][nH]c(=O)c2c(-c3ccc4c(c3)OCO4)c3c4c(cc(Cl)c3cc12)OCO4 [Compound 41, 11-Benzo[1,3]dioxol-5-yl-5-chloro-8,9-dihydro-1,3-dioxa-8,9-diaza-cyclopenta[a]anthracene-7,10-dione] | 7 | > 10 | – | > 100 | > 20 | > 30 | > 40 | – | 30 | 60 | 316 °C (dec.) | – | – | –
13 | O=c1[nH][nH]c(=O)c2c(-c3ccc4c(c3)OCO4)c3c4c(cc(I)c3cc12)OCO4 [Compound 43, 11-Benzo[1,3]dioxol-5-yl-5-iodo-8,9-dihydro-1,3-dioxa-8,9-diaza-cyclopenta[a]anthracene-7,10-dione] | > 40 | > 10 | – | 40 | > 20 | 2 | > 40 | – | 35 | 52 | 300 °C (dec.) | – | – | –
14 | O=C([O-])c1cc2c(Cl)cc3c(c2c(-c2ccc4c(c2)OCO4)c1CO)OCO3.[Na+] [Compound 44, 9-Benzo[1,3]dioxol-5-yl-5-chloro-8-hydroxymethyl-naphtho[1,2-d][1,3]dioxole-7-carboxylic acid monosodium salt] | > 50 | > 10 | > 20 | > 100 | > 20 | > 60 | > 50 | > 10 | 60 | – | 220 °C (dec.) | – | – | –
